According to US8361728B2, “Method for diagnosis of glutamate dehydrogenase disorders” (priority 2008, dated 2013):
Several values for one entry are separate records, joined by “and”; a condition that tells them apart may be missing. Identical values can stand only once. Like-named read-outs stand apart in the source and are kept apart here.

Legend:
[1] = molecular target: T1, Ser443-hGDH1 (Arg443Ser hGDH1 mutant) (Homo sapiens, UniProt P00367, R496S); assay: Inhibition of purified recombinant GDH by female steroidal hormones; format: biochemical
T1 construct: made in house; host or cells: Sf21 insect cells
T1 sequence (P00367 54-558 R496S): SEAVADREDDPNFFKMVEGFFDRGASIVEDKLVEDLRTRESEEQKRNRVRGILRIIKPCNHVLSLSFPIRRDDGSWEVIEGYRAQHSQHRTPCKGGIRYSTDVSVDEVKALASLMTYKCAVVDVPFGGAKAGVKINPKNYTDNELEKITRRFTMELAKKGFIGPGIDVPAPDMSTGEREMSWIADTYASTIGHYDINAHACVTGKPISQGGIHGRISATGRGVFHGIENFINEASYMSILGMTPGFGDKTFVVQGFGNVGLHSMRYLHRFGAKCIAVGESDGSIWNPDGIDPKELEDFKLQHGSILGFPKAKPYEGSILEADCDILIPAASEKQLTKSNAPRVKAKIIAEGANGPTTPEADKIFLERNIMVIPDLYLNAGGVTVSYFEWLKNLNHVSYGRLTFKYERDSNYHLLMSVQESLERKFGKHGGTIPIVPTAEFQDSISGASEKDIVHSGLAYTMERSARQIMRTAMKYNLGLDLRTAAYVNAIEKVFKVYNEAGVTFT
Excerpt: (§1) Production and Purification of Recombinant hGDHs.
(§2) Purification of Recombinant Wild-Type and Mutant hGDHs—Using extracts of Sf21 cells expressing wild-type hGDH1 or hGDH2, or the Arg443Ser hGDH1 mutant were purified to homogeneity using a previously described procedure (Kanavouras et al., 2007). Also, as described below, the Arg443Ser/Gly456Ala double mutant and the Ser409Arg/Asp single mutants of hGDH1 and the Ser445Ala mutant of hGDH2 were studied after they were purified to homogeneity using extracts of Sf21 cells expressing these proteins. Enzyme recoveries and degree of purification of the final products were similar to those of the wild-type hGDH1 and hGDH2.
This was further tested by studying a double mutant of hGDH1 that, in addition to the Arg443Ser change, carries the Gly456Ala polymorphism that confers resistance to GTP. […] That substitution of Ser for Arg443 is responsible for the sensitivity of the wild-type hGDH2 to estrogens was confirmed by reverse mutagenesis experiments in which the Ser443 of hGDH2 was replaced by Arg.

wild-type hGDH1 = molecular target: T2, wild-type hGDH1 (Homo sapiens, UniProt P00367); assay: as above; format: biochemical
T2 construct: made in house; host or cells: Sf21 insect cells, baculovirus
T2 sequence (P00367 54-558): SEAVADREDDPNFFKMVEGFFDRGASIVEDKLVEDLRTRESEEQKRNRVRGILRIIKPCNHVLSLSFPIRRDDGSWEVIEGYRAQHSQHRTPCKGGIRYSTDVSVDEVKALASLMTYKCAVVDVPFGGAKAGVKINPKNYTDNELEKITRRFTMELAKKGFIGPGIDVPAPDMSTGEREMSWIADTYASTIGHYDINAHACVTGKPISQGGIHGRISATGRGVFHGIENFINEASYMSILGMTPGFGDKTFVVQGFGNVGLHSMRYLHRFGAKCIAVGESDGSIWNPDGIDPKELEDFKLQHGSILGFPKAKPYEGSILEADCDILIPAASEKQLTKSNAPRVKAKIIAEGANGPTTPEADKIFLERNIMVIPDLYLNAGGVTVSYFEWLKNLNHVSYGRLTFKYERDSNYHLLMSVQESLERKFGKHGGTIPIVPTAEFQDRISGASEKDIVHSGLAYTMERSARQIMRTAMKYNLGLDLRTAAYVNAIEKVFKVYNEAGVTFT
Description: (§3) For this, a study was performed on the interaction of estrogens with the hGDH2 variant as well as with the wild type-hGDH2 and hGDH1 obtained by expression of the corresponding cDNAs in Sf21 cells.
(§4) Production and Purification of Recombinant hGDHs. […] The produced recombinant hGDHs were purified from Sf21 cell extracts using a previously described method that involves Ammonium Sulfate fractionation, hydrophobic interaction and hydroxyapatite chromatography. […] All hGDH proteins studied were produced and analyzed in parallel.
(§5) Enzyme Assays. GDH activity was assayed spectrophotometrically at 25° C. in the direction of reductive amination of α-ketoglutarate. Initial rates (enzyme velocity at the interval during which the change in absorbance maintained linearity) were recorded. […] Regulation of the human recombinant GDHs by allosteric stimulators was studied by adding to the reaction ADP or L-leucine in various concentrations. Inhibition by GTP was studied by adding this compound in various concentrations to the reaction either in the absence of allosteric modulators or in the presence of 0.1 mM or 1.0 mM ADP. For the heat inactivation studies, samples containing about 50 μg/ml purified enzyme were incubated at 47.5° C. Aliquots were removed at specified time intervals and assayed immediately for enzyme activity.
as §2, with “proteins.” for “proteins. Enzyme recoveries and degree of purification of the final products were similar to those of the wild-type hGDH1 and hGDH2.”

hGDH2 [2] = molecular target: T3, hGDH2 (Homo sapiens, UniProt P49448); assay: Allosteric stimulation of recombinant GDH by ADP or L-leucine; format: biochemical; conditions: positive modulation
T3 construct: made in house; host or cells: Sf21 insect cells, baculovirus
T3 sequence (P49448 54-558): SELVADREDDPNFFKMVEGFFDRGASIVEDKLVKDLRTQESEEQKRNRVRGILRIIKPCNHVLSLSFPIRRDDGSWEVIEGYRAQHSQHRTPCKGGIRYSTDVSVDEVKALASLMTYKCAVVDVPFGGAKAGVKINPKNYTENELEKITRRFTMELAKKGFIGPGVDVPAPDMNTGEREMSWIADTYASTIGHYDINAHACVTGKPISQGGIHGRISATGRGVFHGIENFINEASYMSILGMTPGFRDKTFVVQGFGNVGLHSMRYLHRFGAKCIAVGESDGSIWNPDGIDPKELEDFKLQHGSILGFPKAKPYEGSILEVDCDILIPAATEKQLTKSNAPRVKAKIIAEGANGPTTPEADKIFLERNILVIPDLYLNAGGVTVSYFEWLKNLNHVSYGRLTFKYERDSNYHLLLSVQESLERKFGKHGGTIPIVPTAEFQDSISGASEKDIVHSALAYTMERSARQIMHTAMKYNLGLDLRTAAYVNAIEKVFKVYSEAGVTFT
Description: as §4, §5

Ala445-hGDH2 [3] = molecular target: T4, Ala445-hGDH2 (Homo sapiens, UniProt P49448, S498A); assay: as above; format: biochemical; parameters: made in house; host or cells: Sf21 insect cells, baculovirus; conditions: positive modulation
T4 sequence (P49448 54-558 S498A): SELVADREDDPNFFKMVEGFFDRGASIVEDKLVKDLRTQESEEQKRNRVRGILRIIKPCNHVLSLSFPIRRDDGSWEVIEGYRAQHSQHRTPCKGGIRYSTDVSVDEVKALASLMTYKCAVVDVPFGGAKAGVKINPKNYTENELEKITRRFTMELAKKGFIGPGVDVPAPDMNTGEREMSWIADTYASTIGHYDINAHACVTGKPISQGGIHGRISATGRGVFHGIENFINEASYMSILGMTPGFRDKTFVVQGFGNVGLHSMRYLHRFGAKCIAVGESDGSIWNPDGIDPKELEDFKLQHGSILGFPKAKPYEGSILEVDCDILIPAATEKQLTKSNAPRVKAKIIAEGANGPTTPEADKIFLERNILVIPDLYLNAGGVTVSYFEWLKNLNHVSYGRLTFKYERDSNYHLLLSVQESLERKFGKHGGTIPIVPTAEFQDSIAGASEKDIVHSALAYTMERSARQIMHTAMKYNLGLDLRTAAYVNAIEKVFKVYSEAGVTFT
Description: as §4, §5

hGDH1 [4] = molecular target: T5, hGDH1 (Homo sapiens, UniProt P00367); assay: as above; format: biochemical; parameters: made in house; host or cells: Sf21 insect cells, baculovirus; conditions: positive modulation
T5 sequence (P00367 54-558): as the sequence (P00367 54-558) above
Description: as §4, §5

wild-type hGDH2 = molecular target: T6, wild-type hGDH2 (Homo sapiens, UniProt P49448); assay: Inhibition of purified recombinant GDH by female steroidal hormones; format: biochemical; conditions: for relative inhibition of hGDH2 versus hGDH1: in words
T6 construct: made in house; host or cells: Sf21 insect cells, baculovirus
T6 sequence (P49448 54-558): as the sequence (P49448 54-558) above
Description: as §3, §4, §5
as §2, with “proteins.” for “proteins. Enzyme recoveries and degree of purification of the final products were similar to those of the wild-type hGDH1 and hGDH2.”

Ser445Ala hGDH2 variant = molecular target: T7, Ser445Ala hGDH2 variant (Homo sapiens, UniProt P49448, S498A); assay: Inhibition of purified recombinant GDH by estrogens; format: biochemical; conditions: baseline conditions (absence of allosteric effectors)
T7 construct: made in house; host or cells: Sf21 insect cells, baculovirus
T7 sequence (P49448 54-558 S498A): as the sequence (P49448 54-558 S498A) above
Description: as §3, §1

hGDH2 [5] = molecular target: T3, hGDH2; assay: GTP inhibition of purified recombinant GDH activity; format: biochemical
Description: (§6) To investigate whether the Ser445Ala change modified the protein function of hGDH2, an Ala445-hGDH2 variant was obtained in recombinant form by expressing in Sf21 cells using the baculovirus expression system a GLUD2 cDNA with G instead of 1492T. […] The specific basal activity of the variant was concentration-dependent (FIGS. 6&7), as also previously shown for hGDH2 but not for hGDH1. At enzyme concentrations of about 5 μg/ml, the basal specific activity of the variant approached that of hGDH1 (FIGS. 6 & 7), but in contrast to the latter this activity was resistant to suppression by GTP (Table 3).
as §1

hGDH1 [6] = molecular target: T5, hGDH1; parameters: made in house; host or cells: Sf21 insect cells, baculovirus; conditions: Zaganas and Plaitakis, 2002; read-out: IC50 (GTP inhibition); cited from earlier work
Ala445-hGDH2 [7] = molecular target: T4, Ala445-hGDH2; assay: GTP inhibition of purified recombinant GDH activity; format: biochemical; parameters: made in house; host or cells: Sf21 insect cells, baculovirus
Description: as §6, §1

hGDH1 [8] = molecular target: T5, hGDH1; assay: as above; format: biochemical; parameters: made in house; host or cells: Sf21 insect cells, baculovirus
Description: as §6, §1

hGDH2 [9] = molecular target: T3, hGDH2; conditions: Zaganas and Plaitakis, 2002; read-out: IC50 (GTP inhibition); cited from earlier work
Ser445-hGDH2 = Ser445-hGDH2 (Homo sapiens, UniProt P49448)
Sequence of Ser445-hGDH2 (P49448 54-558): as the sequence (P49448 54-558) above
Description: as §4
as §5, with “GDH activity was assayed spectrophotometrically at 25° C. in the direction of reductive amination of α-ketoglutarate.” left out

Ala445-hGDH2 [10] = molecular target: T4, Ala445-hGDH2
Description: as §4
as §5, with “GDH activity was assayed spectrophotometrically at 25° C. in the direction of reductive amination of α-ketoglutarate.” left out

hGDH1 [11] = molecular target: T5, hGDH1
Description: as §4
as §5, with “GDH activity was assayed spectrophotometrically at 25° C. in the direction of reductive amination of α-ketoglutarate.” left out

[12] = No ADP (baseline conditions), read-out: IC50

C[C@]12CC[C@@H]3c4ccc(O)cc4CC[C@H]3[C@@H]1CC[C@@H]2O [17 b-Estradiol, 17 beta-estradiol]
IC50 [1]: 2.22 ± 0.76 µM
IC50 (wild-type hGDH1; IC50, 0.1 mM ADP): 69.2 ± 1.3 µM
IC50 (wild-type hGDH1; IC50, No ADP (baseline conditions)): 26.9 µM

Nc1ncnc2c1ncn2[C@@H]1O[C@H](COP(=O)(O)OP(=O)(O)O)[C@@H](O)[C@H]1O [ADP]
EC50 (hGDH2 [2]; read-out: ADP SC50): 68.5 ± 2.3 µM
EC50 (Ala445-hGDH2 [3]; read-out: ADP SC50): 58.2 ± 5.5 µM
EC50 (hGDH1 [4]; read-out: ADP SC50): 22.4 ± 2.1 µM

CC/C(=C(/CC)c1ccc(O)cc1)c1ccc(O)cc1 [DES, diethylstilbestrol]
IC50 ([1]; 0.1 mM ADP, read-out: IC50): 0.51 ± 0.05 µM
IC50 (wild-type hGDH1; 0.1 mM ADP, read-out: IC50): 7.07 ± 0.4 µM
IC50 (wild-type hGDH1; [12]): 1.67 ± 0.02 µM
IC50 (wild-type hGDH1; baseline conditions (absence of allosteric effectors), read-out: IC50±S.E.): 1.53 µM
IC50 (wild-type hGDH2; 0.1 mM ADP): 1.05 ± 0.09 µM
IC50 (wild-type hGDH2; No ADP (baseline conditions)): 0.094 µM and 0.09 µM
fold higher sensitivity/affinity of hGDH2 than hGDH1 (wild-type hGDH2; baseline conditions, hGDH2 versus hGDH1): > 15 fold and ~18 fold
effect of inhibitor on Km for α-ketoglutarate, NH3 or glutamate (wild-type hGDH2; inhibitory concentrations of DES, wild-type hGDH1 and hGDH2): not altered
IC50 (Ser445Ala hGDH2 variant): 0.019 ± 0.003 µM

Nc1nc2c(ncn2[C@@H]2O[C@H](COP(=O)(O)OP(=O)(O)OP(=O)(O)O)[C@@H](O)[C@H]2O)c(=O)[nH]1 [GTP]
Hill Coefficient (hGDH2 [5]; 0.1 mM ADP): 1.06 ± 0.16
IC50 (hGDH2 [5]; 0.1 mM ADP): 12.2 ± 2.65 µM
Hill Coefficient (hGDH2 [5]; 1 mM ADP): 0.82 ± 0.11
IC50 (hGDH2 [5]; 1 mM ADP): 204 ± 36.4 µM
Hill Coefficient (hGDH2 [5]; No ADP): 0.72 ± 0.05
IC50 (hGDH2 [5]; No ADP): 40.1 ± 4.46 µM
IC50 (hGDH1 [6]): 0.1 to 0.3 µM
Hill Coefficient (Ala445-hGDH2 [7]; 0.1 mM ADP): 1.01 ± 0.09
IC50 (Ala445-hGDH2 [7]; 0.1 mM ADP): 24.4 ± 2.62 µM
Hill Coefficient (Ala445-hGDH2 [7]; 1 mM ADP): 0.71 ± 0.04
IC50 (Ala445-hGDH2 [7]; 1 mM ADP): 258 ± 42.2 µM
Hill Coefficient (Ala445-hGDH2 [7]; No ADP): 0.80 ± 0.05
IC50 (Ala445-hGDH2 [7]; No ADP): 29.1 ± 4.48 µM
Hill Coefficient (hGDH1 [8]; 0.1 mM ADP): 2.13 ± 0.15
IC50 (hGDH1 [8]; 0.1 mM ADP): 1.61 ± 0.02 µM
Hill Coefficient (hGDH1 [8]; 1 mM ADP): 1.94 ± 0.07
IC50 (hGDH1 [8]; 1 mM ADP): 18.5 ± 0.49 µM
Hill Coefficient (hGDH1 [8]; No ADP): 1.51 ± 0.07
IC50 (hGDH1 [8]; No ADP): 0.31 ± 0.03 µM
IC50 (hGDH2 [9]): > 200 µM

N[C@@H](CCC(=O)O)C(=O)O [Glutamate]
Km (Ser445-hGDH2; read-out: Km Glutamate): 10.7 ± 1.77 mM
Km (Ala445-hGDH2 [10]; read-out: Km Glutamate): 6.8 ± 1.9 mM
Km (hGDH1 [11]; read-out: Km Glutamate): 12.4 ± 1.48 mM

CC(C)C[C@H](N)C(=O)O [L-leucine]
EC50 (hGDH2 [2]; read-out: L-leucine SC50): 1010 ± 213 µM
EC50 (Ala445-hGDH2 [3]; read-out: L-leucine SC50): 955 ± 45 µM
EC50 (hGDH1 [4]; read-out: L-leucine SC50): 860 ± 139 µM

C[C@]12CC[C@@H]3c4ccc(O)cc4CC[C@H]3[C@@H]1C[C@@H](O)[C@@H]2O [Oestriol]
IC50 ([1]; 0.1 mM ADP, read-out: IC50): 2.43 ± 0.05 µM
IC50 (wild-type hGDH1; 0.1 mM ADP, read-out: IC50): 316 ± 26.1 µM
IC50 (wild-type hGDH1; [12]): 145 ± 18.8 µM
IC50 (wild-type hGDH2; 0.1 mM ADP): 189 ± 17.9 µM
IC50 (wild-type hGDH2; No ADP (baseline conditions)): 11.3 ± 0.74 µM
relative inhibition of hGDH2 versus hGDH1 (wild-type hGDH2): inhibited hGDH2 more strongly than hGDH
relative inhibition of hGDH2 versus hGDH1 (wild-type hGDH2; listed as oestriol): inhibited hGDH2 more strongly than hGDH1

CC(=O)[C@H]1CC[C@H]2[C@@H]3CCC4=CC(=O)CC[C@]4(C)[C@H]3CC[C@]12C [Progesterone]
IC50 ([1]; 0.1 mM ADP, read-out: IC50): 8.62 ± 1.23 µM
IC50 (wild-type hGDH1; 0.1 mM ADP, read-out: IC50): 596 ± 50.1 µM
IC50 (wild-type hGDH1; [12]): 219 ± 7.99 µM
IC50 (wild-type hGDH2; 0.1 mM ADP): 392 ± 8.91 µM
IC50 (wild-type hGDH2; No ADP (baseline conditions)): 12.3 ± 2.63 µM
relative inhibition of hGDH2 versus hGDH1 (wild-type hGDH2): inhibited hGDH2 more strongly than hGDH
relative inhibition of hGDH2 versus hGDH1 (wild-type hGDH2; listed as progesterone): inhibited hGDH2 more strongly than hGDH1

O=C(O)CCC(=O)C(=O)O [α-Ketoglutarate]
Km (Ser445-hGDH2; read-out: Km α-Ketoglutarate): 2.07 ± 0.29 mM
Km (Ala445-hGDH2 [10]; read-out: Km α-Ketoglutarate): 2.67 ± 0.31 mM
Km (hGDH1 [11]; read-out: Km α-Ketoglutarate): 2.01 ± 0.18 mM
